From PMC4599575 (Journal of thrombosis and haemostasis : JTH, 2015)

What was measured:
Experiment in all cases: surface plasmon resonance, protein immobilised on CM5 chip, […] Langmuir fit
Format in all cases: binding
[1] = molecular target: VWF (plasma-derived multimeric VWF) (Homo sapiens, UniProt P04275)
[2] = molecular target: GST-rVWF73-H (GST-VWF73-H) (Homo sapiens, UniProt P04275)
rADAMTS13 (rA13) = molecular target: T1, rADAMTS13 (rA13) (Homo sapiens, UniProt Q76LX8)
T1 sequence (Q76LX8 75-1427): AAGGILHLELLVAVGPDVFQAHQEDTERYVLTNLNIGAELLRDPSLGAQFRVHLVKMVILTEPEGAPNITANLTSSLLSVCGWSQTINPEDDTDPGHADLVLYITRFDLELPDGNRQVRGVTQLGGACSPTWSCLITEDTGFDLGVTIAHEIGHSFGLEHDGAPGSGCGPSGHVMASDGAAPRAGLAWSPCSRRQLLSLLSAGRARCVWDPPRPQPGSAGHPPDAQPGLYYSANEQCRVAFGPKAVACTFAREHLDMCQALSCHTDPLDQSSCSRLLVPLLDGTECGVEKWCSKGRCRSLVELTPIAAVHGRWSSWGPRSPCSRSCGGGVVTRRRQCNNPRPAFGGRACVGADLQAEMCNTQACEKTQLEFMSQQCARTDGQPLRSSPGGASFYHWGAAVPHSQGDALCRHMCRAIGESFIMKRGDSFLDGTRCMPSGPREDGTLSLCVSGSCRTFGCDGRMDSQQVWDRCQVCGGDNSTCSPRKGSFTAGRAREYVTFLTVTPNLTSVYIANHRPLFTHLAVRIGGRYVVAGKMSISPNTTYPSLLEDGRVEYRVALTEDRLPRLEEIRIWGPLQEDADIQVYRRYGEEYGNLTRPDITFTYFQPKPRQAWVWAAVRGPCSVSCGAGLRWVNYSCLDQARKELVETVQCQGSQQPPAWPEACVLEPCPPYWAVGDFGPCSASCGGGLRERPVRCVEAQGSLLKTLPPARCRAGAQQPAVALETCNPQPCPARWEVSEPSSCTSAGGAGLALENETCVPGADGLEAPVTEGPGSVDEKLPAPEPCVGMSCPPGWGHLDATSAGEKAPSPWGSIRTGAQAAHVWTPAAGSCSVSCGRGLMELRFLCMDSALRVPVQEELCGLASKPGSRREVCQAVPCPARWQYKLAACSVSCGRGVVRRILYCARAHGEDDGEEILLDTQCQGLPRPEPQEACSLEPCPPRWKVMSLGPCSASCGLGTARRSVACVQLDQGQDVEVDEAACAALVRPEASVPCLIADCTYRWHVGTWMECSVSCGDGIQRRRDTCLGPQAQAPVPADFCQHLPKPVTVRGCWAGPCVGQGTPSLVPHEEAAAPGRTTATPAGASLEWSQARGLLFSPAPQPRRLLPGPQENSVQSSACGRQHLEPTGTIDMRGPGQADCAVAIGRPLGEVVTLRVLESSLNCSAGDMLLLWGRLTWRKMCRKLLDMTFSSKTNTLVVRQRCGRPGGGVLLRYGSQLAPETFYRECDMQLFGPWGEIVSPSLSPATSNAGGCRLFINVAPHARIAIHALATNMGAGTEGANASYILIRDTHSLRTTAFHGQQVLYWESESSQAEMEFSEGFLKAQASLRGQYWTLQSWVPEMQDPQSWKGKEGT

Chain of VWF (plasma-derived multimeric VWF) (P04275 764-2813): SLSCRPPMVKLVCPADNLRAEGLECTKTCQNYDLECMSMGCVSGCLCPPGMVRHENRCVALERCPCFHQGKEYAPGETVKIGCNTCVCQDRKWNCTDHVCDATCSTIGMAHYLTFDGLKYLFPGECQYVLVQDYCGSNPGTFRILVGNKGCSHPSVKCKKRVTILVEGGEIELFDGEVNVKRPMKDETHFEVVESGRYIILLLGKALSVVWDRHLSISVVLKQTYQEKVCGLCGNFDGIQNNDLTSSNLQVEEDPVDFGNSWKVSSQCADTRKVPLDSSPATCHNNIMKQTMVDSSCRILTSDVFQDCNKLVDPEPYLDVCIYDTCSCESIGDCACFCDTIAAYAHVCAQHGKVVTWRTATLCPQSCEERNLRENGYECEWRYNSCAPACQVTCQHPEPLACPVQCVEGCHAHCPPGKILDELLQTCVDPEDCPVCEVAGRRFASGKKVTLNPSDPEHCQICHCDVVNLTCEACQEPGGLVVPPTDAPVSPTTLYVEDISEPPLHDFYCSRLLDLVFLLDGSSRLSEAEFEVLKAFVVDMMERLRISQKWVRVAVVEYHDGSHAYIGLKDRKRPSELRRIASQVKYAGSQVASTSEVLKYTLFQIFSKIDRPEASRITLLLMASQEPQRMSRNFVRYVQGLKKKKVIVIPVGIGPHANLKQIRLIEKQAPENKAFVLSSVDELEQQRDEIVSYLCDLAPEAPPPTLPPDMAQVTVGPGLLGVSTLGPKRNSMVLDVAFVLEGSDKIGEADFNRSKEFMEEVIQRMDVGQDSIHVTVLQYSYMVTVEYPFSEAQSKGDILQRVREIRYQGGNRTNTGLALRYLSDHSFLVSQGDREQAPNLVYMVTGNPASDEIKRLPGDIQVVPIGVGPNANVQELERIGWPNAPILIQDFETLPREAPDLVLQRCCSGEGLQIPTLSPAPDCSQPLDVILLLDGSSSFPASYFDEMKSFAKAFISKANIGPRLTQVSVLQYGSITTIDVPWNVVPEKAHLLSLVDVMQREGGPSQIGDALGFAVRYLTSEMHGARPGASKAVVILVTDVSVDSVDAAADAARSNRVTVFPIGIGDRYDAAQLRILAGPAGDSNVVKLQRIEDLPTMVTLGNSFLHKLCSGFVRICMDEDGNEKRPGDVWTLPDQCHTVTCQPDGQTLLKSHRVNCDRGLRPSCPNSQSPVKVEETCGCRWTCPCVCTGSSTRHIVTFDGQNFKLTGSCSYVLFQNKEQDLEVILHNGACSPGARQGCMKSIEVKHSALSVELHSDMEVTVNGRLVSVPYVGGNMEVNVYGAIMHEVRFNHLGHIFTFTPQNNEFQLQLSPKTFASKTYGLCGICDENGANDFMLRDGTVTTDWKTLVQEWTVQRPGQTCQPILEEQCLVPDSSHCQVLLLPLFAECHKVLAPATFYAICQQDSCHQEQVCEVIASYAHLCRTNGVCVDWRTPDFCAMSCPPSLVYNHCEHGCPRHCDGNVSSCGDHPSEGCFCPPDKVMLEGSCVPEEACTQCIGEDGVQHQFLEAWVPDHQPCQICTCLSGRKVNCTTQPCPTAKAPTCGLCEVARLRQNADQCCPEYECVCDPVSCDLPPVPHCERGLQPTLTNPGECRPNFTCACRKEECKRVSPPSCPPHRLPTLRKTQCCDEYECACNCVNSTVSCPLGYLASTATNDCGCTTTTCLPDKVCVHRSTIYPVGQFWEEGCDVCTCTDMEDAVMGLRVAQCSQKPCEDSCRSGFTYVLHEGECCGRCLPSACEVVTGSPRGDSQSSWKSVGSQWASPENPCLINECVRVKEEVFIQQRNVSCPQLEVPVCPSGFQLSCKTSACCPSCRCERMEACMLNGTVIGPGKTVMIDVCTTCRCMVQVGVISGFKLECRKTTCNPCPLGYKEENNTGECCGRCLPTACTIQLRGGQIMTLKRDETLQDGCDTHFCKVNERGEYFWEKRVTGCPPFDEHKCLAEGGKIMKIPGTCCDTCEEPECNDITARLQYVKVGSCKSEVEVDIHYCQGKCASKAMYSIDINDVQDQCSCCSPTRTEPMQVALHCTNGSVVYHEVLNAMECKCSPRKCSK
Chain of GST-rVWF73-H (GST-VWF73-H) (P04275 1596-1668 limits assumed): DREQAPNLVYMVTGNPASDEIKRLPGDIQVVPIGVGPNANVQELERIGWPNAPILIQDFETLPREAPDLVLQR

Kd [1]: 29.6 ± 40.1 µM | Kd [2]: 57.5 ± 80.7 µM | Kd (rADAMTS13 (rA13)): 17.5 ± 4 µM
Compound: C=CC1=C(C)/C(=C/c2[nH]c(Cc3[nH]c(/C=C4\NC(=O)C(C)=C4C=C)c(C)c3CCC(=O)O)c(CCC(=O)O)c2C)NC1=O [unconjugated bilirubin]
